Experimental data taken from patent US20080207653A1, “Compositions and Method for Increasing the Efficacy of Epidermal Growth Factor Receptor Tyrosine Kinase Inhibitors” (priority 2005, published 2008).

Key:
[1] = tested on: chemotherapy refractory non-small cell lung cancer; conditions: cited from earlier work
human tumor xenografts = conditions: animals; cited from earlier work
[2] = tested on: human lung cancer A549 cells; experiment: Erlotinib accumulation and stereoisomerization in A549 cells and treatment media (LC-MS-MS); assay type: cell-based; conditions: for conversion of parent drug to the 1.78 minute stereoisomer in the presence of cells: media with A549 cells
Description: Analysis of erlotinib metabolism was carried out using erlotinib-resistance cancer cells (human lung cancer A549 cells). Cells were exposed to achievable clinical doses (3 μM) of erlotinib and then lysed at various times following exposure to the drug. Relative erlotinib concentrations were determined in the A549 cell treatment media and compared to levels of erlotinib containing media incubated in the absence of cells as a control. Erlotinib concentrations were assessed using a liquid chromatography dual mass spectrometric method. […] Based on an analysis of chemical structure, only one stereoisomer of the parent drug could account for the 1.78 minute variant form. The stereoisomer migrating at 1.78 minutes represents the L or S configuration of this molecule, wherein the configuration is determined by performing liquid chromatographic separation of the two stereoisomers followed by nuclear magnetic resonance (NMR) analysis of each.
Culture of A549 human lung cancer cells were carried out in Ham's F12 media with L-glutamine containing 10% fetal bovine serum, amphoterecin B, penicillin, and streptomycin. Cells were plated at a density of 300,000 cells per well in a 6 well plate. Cells were allowed to adhere overnight, media was aspirated and 3 mL of treatment media containing 3 μM erlotinib was added to each well. At the same time, 3 mL of the same media was added to wells that contained no cells as a control. One hundred μL of the media was removed from the wells immediately prior to harvesting the cells at various time points. The remaining media was removed and 250 μL of distilled deionized water was added to each well. Cells were also disrupted with a rubber policeman. Each media or cell extract sample was brought to a 1 mL volume with methanol and water (final concentration 50% methanol). Fifty μL of 0.4 M ZnSO4 was added to each sample. Samples were vortexed for 10 seconds and centrifuged at 13,000 RCF for 5 minutes. The supernatants from each were subjected to LC-MS-MS chromatographic analysis using a Waters® Model 2795 system equipped with a Waters® X-Terra® MS column. The mobile phase was composed of 70% methanol containing 0.1% formic acid at a flow rate of 0.15 mL per minute. Dual mass spectroscopy was performed with 394 for the initial mass and 278 for the daughter ion (after collision using argon gas). Dual mass spectroscopic analysis of midazolam was used as an internal standard and was performed at the same time using 326 as the mass for the parent and 291 for the daughter ion. Data was collected and analyzed using Masslynx™ version 3.4 software.

cyclin D1 protein = conditions: in vitro and in vivo, aerodigestive tract cancers; cited from earlier work

C#Cc1cccc(Nc2ncnc3cc(OCCOC)c(OCCOC)cc23)c1 [erlotinib, N-(3-ethynylphenyl)-6,7-bis(2-methoxyethoxy)quinazolin-4-amine]
toxicity at clinical dose ([1]; doses in the range of 150 mg, patients): little reported toxicity
dose showing the ability to affect tumor growth ([1]; patients with chemotherapy refractory non-small cell lung cancer): ~150 mg
dose inhibiting proliferation of human tumor xenografts (human tumor xenografts): ~10 mg/kg
intracellular concentration of erlotinib by 8 hours ([2]; A549 cells, 3 μM erlotinib, 8 hours): nearly undetectable levels
time at which intracellular concentrations of erlotinib peaked ([2]; A549 cells, 3 μM erlotinib, cell lysates): 4 h
total erlotinib concentrations in the treatment media over the time course ([2]; A549 treatment media, 3 μM erlotinib): did not vary significantly
stereoisomer present in the media in the absence of cells ([2]; control media without cells, throughout the time course): parent drug constituted the most abundant stereoisomer
conversion of parent drug to the 1.78 minute stereoisomer in the presence of cells ([2]; 4 hours): some conversion
conversion of parent drug to the 1.78 minute stereoisomer in the presence of cells ([2]; 8 hours): complete conversion
effect on expression of cyclin D1 protein (cyclin D1 protein): represses expression of cyclin D1 protein
